Results taken from a compilation of properties of binary mixtures (doi:10.1021/acs.jced.0c00298).

Assay: xn = mol fraction of the nth substance listed
Settings: 100 kPa

CO + CC[n+]1ccn(CCOC)c1.O=S(=O)([N-]S(=O)(=O)C(F)(F)F)C(F)(F)F
x2 = 0
Settings | viscosity [mPa·s]
288.15 K | 0.623
293.15 K | 0.58
298.15 K | 0.541
303.15 K | 0.505

CC[n+]1ccn(CCOC)c1.O=S(=O)([N-]S(=O)(=O)C(F)(F)F)C(F)(F)F + CO
viscosity [mPa·s]
Settings | x1 = 0.1 | x1 = 0.1997 | x1 = 0.2999 | x1 = 0.3966 | x1 = 0.5 | x1 = 0.5984 | x1 = 0.6953 | x1 = 0.7934 | x1 = 0.9016 | x1 = 1
288.15 K | 1.982 | 4.2 | – | 11.27 | – | – | 30.4 | – | 47.6 | 54.62
293.15 K | 1.791 | 3.71 | 6.22 | 9.6 | 13.37 | 18.95 | 25.01 | 30.37 | 38.28 | –
298.15 K | – | 3.297 | – | 8.27 | 11.39 | 16.24 | 20.9 | 25.15 | 31.34 | 35.49
303.15 K | 1.486 | 2.951 | – | 7.21 | – | 13.93 | 17.85 | 21.12 | 26.04 | –
308.15 K | 1.362 | – | – | – | 8.55 | – | 15.37 | – | 21.94 | 24.58
313.15 K | 1.252 | 2.408 | 3.827 | 5.611 | 7.51 | – | – | – | 18.75 | 20.86
318.15 K | 1.155 | 2.193 | – | 5.009 | 6.66 | 9.11 | 11.53 | 13.65 | 16.34 | 18.03
